`O=C(O)CNC(=O)OCc1ccccc1` showed a solubility (mole fraction) (in 2-butanone, 283.15 K) of 0.0371, a solubility (mole fraction) (in 2-butanone, 288.15 K) of 0.0437 and a solubility (mole fraction) (in 2-butanone, 293.15 K) of 0.0508. The solubility (mole fraction) (in 2-butanone, 298.15 K) was 0.0592, the solubility (mole fraction) (in 2-butanone, 303.15 K) was 0.0692 and the solubility (mole fraction) (in 2-butanone, 308.15 K) was 0.082. For the same molecule, the solubility (mole fraction) (in 2-butanone, 313.15 K) was 0.0966, the solubility (mole fraction) (in 2-butanone, 318.15 K) was 0.114 and the solubility (mole fraction) (in 2-butanone, 323.15 K) was 0.134. For the same molecule, the solubility (mole fraction) (in acetone, 283.15 K) was 0.0617, the solubility (mole fraction) (in acetone, 288.15 K) was 0.0709 and the solubility (mole fraction) (in acetone, 293.15 K) was 0.0815. For the same molecule, the solubility (mole fraction) (in acetone, 298.15 K) was 0.0942, the solubility (mole fraction) (in acetone, 303.15 K) was 0.108 and the solubility (mole fraction) (in acetone, 308.15 K) was 0.123. It also gave a solubility (mole fraction) (in acetone, 313.15 K) of 0.14, a solubility (mole fraction) (in acetone, 318.15 K) of 0.169 and a solubility (mole fraction) (in acetone, 323.15 K) of 0.197. It also gave a solubility (mole fraction) (in acetonitrile, 283.15 K) of 0.0106, a solubility (mole fraction) (in acetonitrile, 288.15 K) of 0.0132 and a solubility (mole fraction) (in acetonitrile, 293.15 K) of 0.0159. It also gave a solubility (mole fraction) (in acetonitrile, 298.15 K) of 0.0198, a solubility (mole fraction) (in acetonitrile, 303.15 K) of 0.0251 and a solubility (mole fraction) (in acetonitrile, 308.15 K) of 0.032. For the same molecule, the solubility (mole fraction) (in acetonitrile, 313.15 K) was 0.0408, the solubility (mole fraction) (in acetonitrile, 318.15 K) was 0.052 and the solubility (mole fraction) (in acetonitrile, 323.15 K) was 0.067. It also gave a solubility (mole fraction) (in ethanol, 283.15 K) of 0.0415, a solubility (mole fraction) (in ethanol, 288.15 K) of 0.0499 and a solubility (mole fraction) (in ethanol, 293.15 K) of 0.0611. It also gave a solubility (mole fraction) (in ethanol, 298.15 K) of 0.0767, a solubility (mole fraction) (in ethanol, 303.15 K) of 0.0955 and a solubility (mole fraction) (in ethanol, 308.15 K) of 0.11. For the same molecule, the solubility (mole fraction) (in ethanol, 313.15 K) was 0.131, the solubility (mole fraction) (in ethanol, 318.15 K) was 0.157 and the solubility (mole fraction) (in ethanol, 323.15 K) was 0.186. For the same molecule, the solubility (mole fraction) (in ethyl acetate, 283.15 K) was 0.0185, the solubility (mole fraction) (in ethyl acetate, 288.15 K) was 0.0222 and the solubility (mole fraction) (in ethyl acetate, 293.15 K) was 0.026. It also gave a solubility (mole fraction) (in ethyl acetate, 298.15 K) of 0.0308, a solubility (mole fraction) (in ethyl acetate, 303.15 K) of 0.0369 and a solubility (mole fraction) (in ethyl acetate, 308.15 K) of 0.0442. It also gave a solubility (mole fraction) (in ethyl acetate, 313.15 K) of 0.053, a solubility (mole fraction) (in ethyl acetate, 318.15 K) of 0.0642 and a solubility (mole fraction) (in ethyl acetate, 323.15 K) of 0.0783. For the same molecule, the solubility (mole fraction) (in isobutanol, 283.15 K) was 0.0149, the solubility (mole fraction) (in isobutanol, 288.15 K) was 0.0188 and the solubility (mole fraction) (in isobutanol, 293.15 K) was 0.0237. It also gave a solubility (mole fraction) (in isobutanol, 298.15 K) of 0.0315, a solubility (mole fraction) (in isobutanol, 303.15 K) of 0.0394 and a solubility (mole fraction) (in isobutanol, 308.15 K) of 0.0523. It also gave a solubility (mole fraction) (in isobutanol, 313.15 K) of 0.0665, a solubility (mole fraction) (in isobutanol, 318.15 K) of 0.0853 and a solubility (mole fraction) (in isobutanol, 323.15 K) of 0.109. The solubility (mole fraction) (in isopropanol, 283.15 K) was 0.0261, the solubility (mole fraction) (in isopropanol, 288.15 K) was 0.0338 and the solubility (mole fraction) (in isopropanol, 293.15 K) was 0.0449. It also gave a solubility (mole fraction) (in isopropanol, 298.15 K) of 0.0566, a solubility (mole fraction) (in isopropanol, 303.15 K) of 0.0707 and a solubility (mole fraction) (in isopropanol, 308.15 K) of 0.0864. For the same molecule, the solubility (mole fraction) (in isopropanol, 313.15 K) was 0.108, the solubility (mole fraction) (in isopropanol, 318.15 K) was 0.133 and the solubility (mole fraction) (in isopropanol, 323.15 K) was 0.16. It also gave a solubility (mole fraction) (in methanol, 283.15 K) of 0.0654, a solubility (mole fraction) (in methanol, 288.15 K) of 0.0769 and a solubility (mole fraction) (in methanol, 293.15 K) of 0.0933. It also gave a solubility (mole fraction) (in methanol, 298.15 K) of 0.109, a solubility (mole fraction) (in methanol, 303.15 K) of 0.123 and a solubility (mole fraction) (in methanol, 308.15 K) of 0.143. For the same molecule, the solubility (mole fraction) (in methanol, 313.15 K) was 0.164, the solubility (mole fraction) (in methanol, 318.15 K) was 0.19 and the solubility (mole fraction) (in methanol, 323.15 K) was 0.219. It also gave a solubility (mole fraction) (in methyl acetate, 283.15 K) of 0.0261, a solubility (mole fraction) (in methyl acetate, 288.15 K) of 0.0309 and a solubility (mole fraction) (in methyl acetate, 293.15 K) of 0.0366. The solubility (mole fraction) (in methyl acetate, 298.15 K) was 0.0436, the solubility (mole fraction) (in methyl acetate, 303.15 K) was 0.053 and the solubility (mole fraction) (in methyl acetate, 308.15 K) was 0.0627. For the same molecule, the solubility (mole fraction) (in methyl acetate, 313.15 K) was 0.0737, the solubility (mole fraction) (in methyl acetate, 318.15 K) was 0.0902 and the solubility (mole fraction) (in methyl acetate, 323.15 K) was 0.105. It also gave a solubility (mole fraction) (in n-butanol, 283.15 K) of 0.0205, a solubility (mole fraction) (in n-butanol, 288.15 K) of 0.0257 and a solubility (mole fraction) (in n-butanol, 293.15 K) of 0.032. The solubility (mole fraction) (in n-butanol, 298.15 K) was 0.04, the solubility (mole fraction) (in n-butanol, 303.15 K) was 0.0504 and the solubility (mole fraction) (in n-butanol, 308.15 K) was 0.0627. For the same molecule, the solubility (mole fraction) (in n-butanol, 313.15 K) was 0.0786, the solubility (mole fraction) (in n-butanol, 318.15 K) was 0.0982 and the solubility (mole fraction) (in n-butanol, 323.15 K) was 0.122. For the same molecule, the solubility (mole fraction) (in n-pentanol, 283.15 K) was 0.018, the solubility (mole fraction) (in n-pentanol, 288.15 K) was 0.0221 and the solubility (mole fraction) (in n-pentanol, 293.15 K) was 0.0275. It also gave a solubility (mole fraction) (in n-pentanol, 298.15 K) of 0.0349, a solubility (mole fraction) (in n-pentanol, 303.15 K) of 0.0429 and a solubility (mole fraction) (in n-pentanol, 308.15 K) of 0.0578. The solubility (mole fraction) (in n-pentanol, 313.15 K) was 0.0727, the solubility (mole fraction) (in n-pentanol, 318.15 K) was 0.0886 and the solubility (mole fraction) (in n-pentanol, 323.15 K) was 0.111. For the same molecule, the solubility (mole fraction) (in n-propanol, 283.15 K) was 0.0261, the solubility (mole fraction) (in n-propanol, 288.15 K) was 0.0327 and the solubility (mole fraction) (in n-propanol, 293.15 K) was 0.0399. For the same molecule, the solubility (mole fraction) (in n-propanol, 298.15 K) was 0.0504, the solubility (mole fraction) (in n-propanol, 303.15 K) was 0.0636 and the solubility (mole fraction) (in n-propanol, 308.15 K) was 0.0794. It also gave a solubility (mole fraction) (in n-propanol, 313.15 K) of 0.0986, a solubility (mole fraction) (in n-propanol, 318.15 K) of 0.122 and a solubility (mole fraction) (in n-propanol, 323.15 K) of 0.149.

Reference: BigSolDB 2.1
